According to article PMC7937589 (Drugs in R&D, 2020):

What was measured:
[1] = test system: Japanese patients with solid tumors; format: in vivo, human
[2] = Plasma and urine pharmacokinetics of ASP3026; format: in vivo, human; conditions: for Tmax: human, plasma, oral
[3] = test system: solid tumors; experiment: Antitumor activity, overall response by RECIST v1.1; format: in vivo, human; conditions: for Partial response rate: across all treatment cycles
[4] = test system: advanced solid malignancies; conditions: US study, patients with ALK-positive tumors, especially NSCLC; cited from earlier work
[5] = Japanese patients, oral once daily

In the case of `COc1cc(N2CCC(N3CCN(C)CC3)CC2)ccc1Nc1ncnc(Nc2ccccc2S(=O)(=O)C(C)C)n1` [ASP3026], the “Patients with dose-limiting toxicity (DLT)” value ([1]; 325 mg daily, Cycle 1, six patients evaluated) is reported as “Three”, the “Maximum tolerated dose (MTD)” value [1, 5] is reported as 200 mg and the “Recommended phase II dose (RP2D)” value [1, 5] is reported as 200 mg. For the same compound, the “Total incidence of Grade 4 TEAEs” value ([1]; all cohorts (1/29)) was 3.4%, the “Total incidence of Grade 5 TEAEs” value ([1]; all cohorts (1/29)) was 3.4% and the “Patients reporting eye disorders” value ([1]; all cohorts (4/29)) was 13.8%. The “Total incidence of Grade 1 TEAEs” value ([1]; all cohorts (6/29)) was 20.7%, the “Total incidence of Grade 2 TEAEs” value ([1]; all cohorts (8/29)) was 27.6% and the “Total incidence of Grade 3 TEAEs” value ([1]; all cohorts (13/29)) was 44.8%. For the same compound, the “Overall incidence of drug-related AEs” value ([1]; all cohorts (24/29)) was 82.8%, the “Incidence of TEAEs” value ([1]; all treatment groups (29/29)) was 100% and the “Dose-limiting toxicity (DLT)” value ([1]; daily dose from 25 mg to 200 mg, Cycle 1) was “No DLT was observed”. For the same compound, the “Dose dependence of median Cmax and AUC24h” value ([2]; 25 mg to 325 mg, Day 1 and Day 28, escalation cohort) was “increased in a dose-dependent manner”, the Tmax ([2]; Mean tmax across the dose groups, Day 1) was 2.12 to 4.52 h and the Tmax ([2]; Mean tmax across the dose groups, Day 28) was 2.48 to 3.75 h. The Tmax ([2]; Median tmax across the dose groups, Day 1) was 1.97 to 3.97 h, the Tmax ([2]; Median tmax across the dose groups, Day 28) was 2.48 to 3 h and the Steady state achieved ([2]; once daily oral dosing) was at most 8 days. For the same compound, the Partial response ([3]; Cycle 1, 200 mg daily, escalation (n = 3) and expansion (n = 6) cohorts) was “none of the patients”, the “Patients with stable disease” value ([3]; Cycle 1, 200 mg daily, escalation cohort (n = 3)) was “three” and the “Patients with stable disease” value ([3]; Cycle 1, 200 mg daily, expansion cohort (n = 6)) was “three”. The Partial response rate ([3]; 75-mg dose group (1/3)) was 33.3%, the Partial response rate ([3]; 125-mg dose group (1/4)) was 25.0% and the “Patients achieving partial response (PR)” value [4] was “Half of the patients”.
